Counter-ions that a name gives are not always drawn.
Target: T1, Syk tyrosine kinase (Homo sapiens, UniProt P43405)
T1 construct: purchased Carna Biosciences, Inc
Test: Test for Syk tyrosine kinase inhibitory activity (ELISA)
Assay type: biochemical
Conditions: Syk tyrosine kinase (Carna Biosciences), 25 μM ATP in substrate solution, 30° C. 1 hour, n=2; read-out: Evaluation (IC50, concentration inhibiting the tyrosine kinase activity at 50%)
Method: Test Example 1: Test for Syk Tyrosine Kinase Inhibitory Activity
1. Preparation of Test Substance
A test substance was prepared at 10 mM in dimethyl sulfoxide (DMSO), and further diluted with DMSO to concentrations of 1000, 300, 100, 30, 10, 3, 1, 0.3, 0.1, 0.03, and 0.01 μM. The resulting solutions were further diluted to 20-fold with an assay buffer, whereby test substance solutions were prepared. As a negative control, a solution obtained by diluting DMSO to 20-fold with an assay buffer was used. As the assay buffer, a buffer containing 15 mM Tris-HCl (pH 7.5), 0.01 (v/v) % Tween-20, and 1 mM dithiothreitol was used.
2. Measurement of Syk Tyrosine Kinase Inhibitory Activity
The activity was measured using the ELISA method. Each of the test substance solutions was added to a streptavidine-coated 96-well place (DELFIA Strip Plate 8×12 wells, PerkinElmer Co., Ltd,) at 10 μL per well (n=2), and a substrate solution (625 nM biotinylated peptide substrate, 25 μM ATP, 25 mM MgCl2, 15 mM Tris-HCl (pH 7.5), 0.01 (v/v) % Tween-20, 1 mM dithiothreitol) was added to the plate at 20 μL per well, and the resulting mixture was stirred. Finally, Syk tyrosine kinase (Carna Biosciences, Inc.) (previously diluted to 0.025 nM with the assay buffer) was added to the plate at 20 μL per well, and the resulting mixture was stirred. A reaction was allowed to proceed at 30° C. for 1 hour. After the plate was washed 4 times with a washing buffer (50 mM Tris-HCl (pH 7.5, 150 mM NaCl, 0.02 (v/v) % Tween-20), a blocking buffer (0.1% bovine serum albumin, 50 mM Tris-HCl (pH 7.5), 150 mM NaCl, 0.02 (v/v) % Tween-20) was added to the plate at 150 μL per well, and blocking was performed at 30° C. for 30 minutes. Then, the blocking buffer was removed, and a horseradish peroxidase-labeled anti-phosphorylated tyrosine antibody (BD Biosciences, Inc.) (previously diluted to 10000-fold with the blocking buffer) was added to the plate at 100 μL per well, and the plate was incubated at 30° C. for 30 minutes. After the plate was washed 4 times with the washing buffer, a 3,3′,5,5′-tetramethylbenzidine solution (Sigma-Aldrich Co., Ltd.) was added to the plate at 100 μL per well to develop the color for 10 minutes. The reaction was stopped by adding 0.1 M sulfuric acid at 100 μL per well. The absorbance at 450 nm was measured using a microplate reader (Multiskan F C, Thermo Fisher Scientific K,K.).
3. Analysis of Measurement Results
A non-linear regression analysis was performed for the measured absorbance using the SAS system (SAS institute. Inc.), and a concentration of each of the test substances: inhibiting the tyrosine kinase activity at 50% (IC50 ) was calculated. A case where IC50 is […] was evaluated as ***, a case where IC50 is 5 nM or more and less than 50 nM was evaluated as **, and a case where IC50 is 50 nM or more and less than 500 nM was evaluated as *, which are shown in the column of evaluation item.

`N#Cc1ccnc(Nc2cc(C3CC3)cc(-c3ccc(N4CC[C@@H](O)C4)nc3)n2)c1` [Example 22, 2-({4-cyclopropyl-6′-[(3R)-3-hydroxypyrrolidin-1-yl]-2,3′-bipyridin-6-yl}amino)pyridine-4-carbonitrile hydrochloride] and `N#Cc1ccnc(Nc2cc(C3CC3)cc(-c3ccc(N4CC[C@H](O)C4)nc3)n2)c1` [Example 25, 2-({4-cyclopropyl-6′-[(3S)-3-hydroxypyrrolidin-1-yl]-2,3′-bipyridin-6-yl}amino)pyridine-4-carbonitrile hydrochloride] fall in the same range of IC50: 0.005 to 0.05 µM for the first, 0.005 to 0.05 µM for the second.

`N#Cc1ccnc(Nc2cc(C3CC3)cc(-c3ccc(NCCCO)nc3)n2)c1` [Example 23, 2-({4-cyclopropyl-6′-[(3-hydroxypropyl)amino]-2,3′-bypyridin-6-yl}amino)pyridine-4-carbonitrile hydrochloride] and `CC(C)(CO)CNc1ccc(-c2cc(C3CC3)cc(Nc3cc(C#N)ccn3)n2)cn1` [Example 24, 2-({4-cyclopropyl-6′-[(3-hydroxy-2,2-dimethylpropyl)amino]-2,3′-bipyridin-6-yl}amino)pyridine-4-carbonitrile hydrochloride] fall in the same range of IC50: 0.005 to 0.05 µM for the first, 0.005 to 0.05 µM for the second.

`N#Cc1ccnc(Nc2cc(C3CC3)cc(-c3ccc(N4CCC(CO)CC4)nc3)n2)c1` [Example 26, 2-({4-cyclopropyl-6′-[4-(hydroxymethyl)piperidin-1yl]-2,3′-bipyridin-6-yl}amino)pyridine-4-carbonitrile hydrochloride] and `N#Cc1ccnc(Nc2cc(C3CC3)cc(-c3ccc(N4CCC(N)CC4)nc3)n2)c1` [Example 28, 2-{[6′-(4-aminopiperidin-1-yl)-4-cyclopropyl-2,3′-bipyridin-6-yl]amino}pyridine-4-carbonitrile dihydrochloride] fall in the same range of IC50: 0.005 to 0.05 µM for the first, 0.005 to 0.05 µM for the second.

First: N#Cc1ccnc(Nc2cc(C3CC3)cc(-c3ccc(N4CCSCC4)nc3)n2)c1 [Example 27, 2-{[4-cyclopropyl-6′-(thiomorphoiln-4-yl)-2,3′-bipyridin-6-yl]amino}pyridine-4-carbonitrile hydrochloride]
Second: N#Cc1ccnc(Nc2cc(C3CC3)cc(-c3ccc(N4CCC(F)CC4)nc3)n2)c1 [Example 30, 2-{[4-cyclopropyl-6′-(4-fluoropiperidin-1-yl)-2,3′-bipyridin-6-yl]amino}pyridine-4-carbonitrile hydrochloride]
The IC50 of the first is lower: 0.005 to 0.05 µM for the first, 0.05 to 0.5 µM for the second.

First: CNC1CCN(c2ccc(-c3cc(C4CC4)cc(Nc4cc(C#N)ccn4)n3)cn2)CC1 [Example 29, 2-({4-cyclopropyl-6′-[4-(methylamino)piperidin-1-yl]-2,3′-bipyridin-6-yl}amino)pyridine-4-carbonitrile dihydrochloride]
Second: CC(=O)N[C@H]1CCN(c2ccc(-c3cc(C4CC4)cc(Nc4cc(C#N)ccn4)n3)cn2)C1 [Example 42, N-[(3S)-1-{6-[(4-cyanopyridin-2-yl)amino]-4-cyclopropyl-2,3′-bipyridin-6′-yl}pyrrolidin-3-yl]acetamide hydrochloride]
The IC50 of the first is lower: 0.005 to 0.05 µM for the first, 0.05 to 0.5 µM for the second. The first is the more potent here.

`N#Cc1ccnc(Nc2cc(C3CC3)cc(-c3ccc(N(CCO)CCO)nc3)n2)c1` [Example 31, 2-({6′-[bis(2-hydroxyethyl)amino]-4-cyclopropyl-2,3′-bipyridin-6-yl}amino)pyridine-4-carbonitrile hydrochloride] and `Cn1ncc2ccc(-c3cc(C4CC4)cc(Nc4cc(C#N)ccn4)n3)cc21` [Example 37, 2{[4-cyclopropyl-6-(1-methyl-1H-indazol-6-yl)pyridin-2-yl]amino}pyridine-4-carbonitrile hydrochloride] fall in the same range of IC50: 0.005 to 0.05 µM for the first, 0.005 to 0.05 µM for the second.

`N#Cc1ccnc(Nc2cc(C3CC3)cc(-c3ccc(N4CCCNCC4)nc3)n2)c1` [Example 32, 2-{[4-cyclopropyl-6′-(1,4-diazepan-1-yl)-2,3′-bipyridin-6-yl]amino}pyridine-4-carbonitrile dihydrochloride] and `CN1CCCN(c2ccc(-c3cc(C4CC4)cc(Nc4cc(C#N)ccn4)n3)cn2)CC1` [Example 38, 2-{[4-cyclopropyl-6′-(4-methyl-1,4-diazepan-1-yl)-2,3′-bipyridin-6-yl]amino}pyridine-4-carbonitrile dihydrochloride] fall in the same range of IC50: 0.005 to 0.05 µM for the first, 0.005 to 0.05 µM for the second.

`N#Cc1ccnc(Nc2cc(C3CC3)cc(-c3ccc(N4CCC[C@H](O)C4)nc3)n2)c1` [Example 33, 2-({4-cyclopropyl-6′-[(3S)-3-hydroxypiperidin-1-yl]-2,3′-bipyridin-6-yl}amino)pyridine-4-carbonitrile hydrochloride] and `N#Cc1ccnc(Nc2cc(C3CC3)cc(-c3ccc(N4CCC[C@@H](O)C4)nc3)n2)c1` [Example 34, 2-({4-cyclopropyl-6′-[(3R)-3-hydroxypiperidin-1-yl]-2,3′-bipyridin-6-yl}amino)pyridine-4-carbonitrile hydrochloride] fall in the same range of IC50: 0.005 to 0.05 µM for the first, 0.005 to 0.05 µM for the second.

`N#Cc1ccnc(Nc2cc(C3CC3)cc(-c3cnc(N4CCC(O)CC4)nc3)n2)c1` [Example 35, 2-({4-cyclopropyl-6-[2-(4-hydroxypiperidin-1-yl)pyrimidin-5-yl]pyridin-2-yl}amino)pyridine-4-carbonitrile hydrochloride] and `N#Cc1ccnc(Nc2cc(C3CC3)cc(-c3ccc(N4CCC(O)CC4)cc3)n2)c1` [Example 41, 2-({4-cyclopropyl-6-[4-(4-hydroxypiperidin-1-yl)phenyl]pyridin-2-yl}amino)pyridine-4-carbonitrile hydrochloride] fall in the same range of IC50: 0.05 to 0.5 µM for the first, 0.05 to 0.5 µM for the second.

First: Cn1ncc2cc(-c3cc(C4CC4)cc(Nc4cc(C#N)ccn4)n3)ccc21 [Example 36, 2-{[4-cyclopropyl-6-(1-methyl-1H-indazol-5-yl)pyridin-2-yl]amino}pyridine-4-carbonitrile hydrochloride]
Second: CNC(=O)C1CCCN1c1ccc(-c2cc(C3CC3)cc(Nc3cc(C#N)ccn3)n2)cn1 (centres unmarked) [Example 39, 1-{6-[(4-cyanopyridin-2-yl)amino]-4-cyclopropyl-2,3′-bipyridin-6′-yl}-N-methylpyrrolidine-2-carboxamide hydrochloride]
The IC50 of the first is lower: 0.005 to 0.05 µM for the first, 0.05 to 0.5 µM for the second. The first is the more potent here.

`N#Cc1ccnc(Nc2cc(C3CC3)cc(-c3ccc(N4CCC[C@H]4C(N)=O)nc3)n2)c1` [Example 40, (S)-1-{6-[(4-cyanopyridin-2-yl)amino]-4-cyclopropyl-2,3′-bipyridin-6′-yl}pyrrolidine-2-carboxamide hydrochloride] and `N#Cc1ccnc(Nc2cc(C3CC3)cc(-c3ccc(N4CCC[C@@H]4C(N)=O)nc3)n2)c1` [Example 47, (R)-1-{6-[(4-cyanopyridin-2-yl)amino]-4-cyclopropyl-2,3′-bipyridin-6′-yl}pyrrolidine-2-carboxamide hydrochloride] fall in the same range of IC50: 0.05 to 0.5 µM for the first, 0.05 to 0.5 µM for the second.

`CCNC(=O)N1CCN(c2ccc(-c3cc(C4CC4)cc(Nc4cc(C#N)ccn4)n3)cn2)CC1` [Example 43, 4-{6-[(4-cyanopyridin-2-yl)amino]-4-cyclopropyl-2,3′-bipyridin-6′-yl}-N-ethylpiperazine-1-carboxamide hydrochloride] and `CC(C)NC(=O)N1CCN(c2ccc(-c3cc(C4CC4)cc(Nc4cc(C#N)ccn4)n3)cn2)CC1` [Example 44, 4-{6-[(4-cyanopyridin-2-yl)amino]-4-cyclopropyl-2,3′-bipyridin-6′-yl}-N-(propan-2-yl)piperazine-1-carboxamide hydrochloride] fall in the same range of IC50: 0.05 to 0.5 µM for the first, 0.05 to 0.5 µM for the second.

`N#Cc1ccnc(Nc2cc(C3CC3)cc(-c3ccc(N4CC[C@@H](NC(N)=O)C4)nc3)n2)c1` [Example 45, 1-[(3R)-1-{6-[(4-cyanopyridin-2-yl)amino]-4-cyclopropyl-2,3′-bipyridin-6′-yl}pyrrolidin-3-yl]urea hydrochloride] and `N#Cc1ccnc(Nc2cc(C3CC3)cc(-c3ccc(N4CCN(C(N)=S)CC4)nc3)n2)c1` [Example 46, 4-{6-[(4-cyanopyridin-2-yl)amino]-4-cyclopropyl-2,3′-bipyridin-6′-yl}piperazine-1-carbothioamide hydrochloride] fall in the same range of IC50: 0.05 to 0.5 µM for the first, 0.05 to 0.5 µM for the second.
